From patent US20110166206A1, “UBIQUILIN REGULATION OF PRESENILIN ENDOPROTEOLYSIS, AND SUPPRESSION OF POLYGLUTAMINE-INDUCED TOXICITY IN CELLS” (UNIVERSITY OF MARYLAND BIOTECHNOLOGY INSTITUTE, priority 2005, published 2011) come the findings set out here.

One series relates to mouse cortical neurons. The experiment in a line: Ubiquilin-1 overexpression in mouse primary neuronal cultures transfected with GFP-HttPolyQ74. Format: cell-based. On the procedure: FIG. 10. […] Mouse cortical neurons (14 days in vitro) were transiently transfected with pEGFP (3 μg each well, a), or pEGFP-HttExon-1polyQ(74) alone (3 μg each well, b), or cotransfected with both pEGFP-HttExon-1polyQ(74) and ubiquilin-1 cDNA with the ratio indicated (3 μg of pEGFP-HttExon-1polyQ(74) plus 1.5 μg or 3 μg of ubiquilin-1 cDNA; c, d).
B. Overexpression of ubiquilin-1 reduces formation of GFP-HttPolyQ(74) inclusions in cultured mouse neurons. […] Overexpression of ubiquilin-1 reduces GFP-HttPolyQ(74)-induced cell death in cultured mouse neurons. 30 hours following transfection, the cultures were stained with both Hoechst 33342 and propidium iodide (PI) and then subjected for fluorescent microscopy analysis. PI positively stained cells were treated as dead cells and only the green (GFP-positive) cells were included in the cell death analysis. Results are mean±SD.
Next it was investigated whether the modulation of polyglutamine aggregation and toxicity by ubiquilin-1 overexpression is manifested in neuronal cells, which might be more relevant in terms of controlling neurodegeneration in HD and related disorders. […] The insolubility of the Htt protein was not measured in these cells due difficulties in preparing reliable soluble and insoluble material from neurons and because of a limitation in the number for cells required for the assay.

The test system of a further series is HeLa cells. As to the kind of experiment: Co-transfection of ubiquilin-1 cDNA with GFP-Htt Exon 1 Q74 construct in HeLa cells. Format: cell-based. On the procedure: FIG. 9. […] Immunoblots showing GFP-immunoreactivity after biochemical fractionation of parallel sets of HeLa cells transfected with the constructs described in (A) into Triton-X100 soluble and pellet fractions. • D. Densitometric quantification of anti-GFP immunoreactive bands depicting the relative amount of GFP-irnmunoreaction found in the pellet compared to that the total (soluble and pellet fractions combined).
HeLa cells were grown in DME supplemented with 10% FBS. Cells were transiently transfected with plasmid DNA using by calcium phosphate coprecipitation. Stable HeLa cell lines were isolated by cotransfection of EGFP expression constructs with a pNeo plasmid and selection with G418. Stable cell lines were identified by GFP-fluorescence.
Cell death was monitored either through examination of the nuclear morphology observed after Hoechst 33342 (1 μg/ml) staining, or through detecting the membrane selective permeability following 3 μM of propidium iodide (PI) staining. Terminal deoxynucleotidyl Transferase Biotin-dUTP Nick End Labeling (TUNEL) staining was performed with DeadEnd Colorimetric TUNEL staining kits purchased from Promega. For detecting caspase-3 activation, two methods were used. Cell lysates were separated by SDS-PAGE and probed with an antibody against the cleaved substrate for caspase-3. Alternatively, caspase activity was also detected by flurogenic techniques by incubating the cell lysates with a flurogenic caspase-3 substrate, AC-DEVD-AMC in a 96-well plate. After incubation, the cleaved free AMC was scanned by a fluorescence multi-well plate reader (SOSTmax, Sunnyvale, CA) with an excitation at 380 nm (excitation) and emission at 460 nm (emission).
Having established that expression of GFP-tagged Htt-Exon1-polyglutamine fusion proteins in HeLa cells caused a polyglutamine-number dependent increase in intracellular inclusion formation, Triton-X100 insolubility, and cell death, it was necessary to examined what effect overexpression of ubiquilin-1 has on these properties. […]

Consider “UBQLN1: PS-interacting protein ubiquilin-1, overexpressed in cells from a cDNA expression plasmid”, for which, in the series on mouse cortical neurons, the inclusion formation result was “decreased inclusion formation” and the neuronal cell death entry was “decreased GFP-HttPolyQ74-induced neuronal cell death”. For the same substance, the “GFP-HttPolyQ74 fusion protein accumulation” value in the series on HeLa cells (anti-GFP immunoblot) is recorded as “dose-dependent increase in accumulation”. The “Triton-X100 solubility of GFP-HttPolyQ74 fusion protein” value in the series with HeLa cells (biochemical fractionation) is “a greater proportion of the GFP-HttPolyQ74-fusion protein remained soluble”. For the same substance, in the series with HeLa cells (increasing amounts of ubiquilin-1 cDNA vs GFP-Htt Exon-1PolyQ74 alone), the cell death entry was “dose-dependent decrease in cell death”.
